In patent US9656972B2, “Compounds for treatment of cystic fibrosis” (THE CALIFORNIA INSTITUTE FOR BIOMEDICAL RESEARCH, priority 2013, dated 2017):

Tests used:
guinea-pigs = test: Tracheal potential difference (TPD) after intra-tracheal dosing in guinea pigs; format: in vivo; settings: guinea pig; for TPD (mV): i.t. instillation, mean; for TPD Assessment Time after i.t. Treatment 1 hr / TPD Assessment Time after i.t. Treatment 3 hr / TPD Assessment Time after i.t. Treatment 5 hr / TPD Assessment Time after i.t. Treatment 8 hr / TPD Assessment Time after i.t. Treatment 24 hr / TPD Assessment Time after i.t. Treatment 48 hr: Table 3, mean ± sem
From the text: Cystic fibrosis (CF) and chronic obstructive pulmonary disease (COPD) is dysregulated clearance of mucus across the cell layers lining the respiratory tract. A therapeutic strategy to treat these diseases is to inhibit these channels or the regulators of these channels in an effort to correct this mucus clearance defect. Potential difference is used in the clinic as a diagnostic tool for cystic fibrosis sufferers and for clinical trials. Small molecule inhibitors of these targets will enhance mucociliary clearance and thereby improve lung function and reduce the rate of exacerbations in cystic fibrosis (CF) and chronic obstructive pulmonary disease (COPD) patients. The guinea pig, unlike other rodents, has a lung structure which is roughly analogous to the human lung. For this reason, in terms of rodent models of lung function the guinea pig is often the model of choice for respiratory disease models including asthma, COPD and respiratory distress syndrome.
Preparation of Agar Bridges
Agar (3.5%) was dissolved in Hank's buffered salt solution (pH 7.4, 280-305 mosmkg_1H2O) by heating in a water bath at 100° C. A 30-40 cm length of polyethylene tubing, of which one end was bevelled at an angle of 20-60°, was then filled with the agar ensuring no air bubbles were formed or trapped within the tubing. The beveled tip of the tube was then dipped in the liquid agar, creating a small bulge. The exploring and reference electrodes constructed with the Hank's buffered salt solution/agar bridge were linked to a calomel half cell by immersion in 1M KCl.
Guinea pigs received a single dose of either the test article or vehicle instilled directly into the trachea. The animal was placed under short-term anesthesia using an inhaled isoflurane/nitrous oxide (N2O) 1:1 mixture (level 5/optimal for ˜10 sec.; 3.5/2 for 5 min.). At this suitable depth of anesthesia (loss of pedal and blink reflex), a single dose of either the test article, vehicle and/or positive control was instilled directly into the trachea. This was accomplished by very delicately inserted the 3″, 18 guage feeding tube into the trachea to preserve the potential difference of the mucosa. The guinea pig was allowed to recovered immediately; at times with the aid of supplemental O2. […] If there was apparent toxicity, animals were euthanized immediately and all observation was appropriately documented. As the animal was anesthetized during this treatment, no local anesthesia was necessary and there was no need to use a laryngoscope.
30 minutes prior to the 3 hr post dosing surgery each guinea pig received a dose of 0.4 mL of Midazolam-5 mg/mL, intra-peritoneal (i.p.) injection followed 25 minutes later with a 1 mL/kg of 50 mg/kg ketamine/6.5 mg/kg xylazine i.p. injection (previously prepared with 100 mg/mL ketamine and 25 mg/mL xylazine in Sterile Water for Injection USP mixed at 2:1:1 respectively). […] The trachea was exposed and visualized near the sternum using minimal blunt dissection. A lateral incision was made between the cartilaginous rings of the trachea close to the sternum. The beveled (distal) end of an exploring electrode was gently inserted into the lumen of the trachea moving in the direction towards the larynx, ensuring that spontaneous respiration was still possible. The beveled end of the reference electrode was positioned near the trachea in electrical contact with the flesh of the throat. A small volume of HBSS was applied into this region to ensure a good electrical contact. Potential difference was measured using a high impedance voltmeter (IsoMil) (5-0.5 cm increment measurement for verification—but only the initial placement value is recorded). The animal was terminated immediately after this procedure while still under anesthesia with an intra-cardiac dose of 0.5 mL of Euthasol.

[1] = Systemic (plasma) exposure after intratracheal dosing; format: in vivo, guinea pig; settings: 1 mg/kg single dose, compared with monomeric GS-9411
Experimental: A comparison of systemic (plasma exposure) of monomeric compound GS-9411 and dimeric compound 28 after intratracheal dosing was performed (at 1 mg/kg single dose).

[2] = Table 2 controls, dose 300 ug/kg, vehicle −12.4
[3] = Table 1, dose 0.2 ug/kg, 3 hr after dosing
[4] = Table 1, dose 30 ug/kg, 3 hr after dosing
[5] = Table 1, dose 300 ug/kg, 3 hr after dosing

Compound: CN(C)C(=O)COC(=O)Cc1ccc(OC(=O)c2ccc(NC(=N)N)cc2)cc1 [Camostat]
- TPD (mV) (guinea-pigs; [2]): −4.9 mV

Compound: N=C(NCCCCc1ccc(OCCOCCOCCNC(=O)CCC(=O)NCCOCCOCCOc2ccc(CCCCNC(=N)NC(=O)c3nc(Cl)c(N)nc3N)cc2)cc1)NC(=O)c1nc(Cl)c(N)nc1N [Compound 68]
- TPD (mV) (guinea-pigs; [3]): −6.9 mV

Compound: N=C(NCCCCc1ccc(OCCOCCNC(=O)NCCCCNC(=O)NCCOCCOc2ccc(CCCCNC(=N)NC(=O)c3nc(Cl)c(N)nc3N)cc2)cc1)NC(=O)c1nc(Cl)c(N)nc1N [Compound 37]
- TPD (mV) (guinea-pigs; [4]): −7.50 mV
- TPD (mV) (guinea-pigs; [5]): −5.50 mV

Compound: N=C(NCCCCc1ccc(OCCOCCOCCOCCOCCO)cc1)NC(=O)c1nc(Cl)c(N)nc1N [Compound 66]
- TPD (mV) (guinea-pigs; [4]): −7.80 mV

Compound: N=C(NCCCCc1ccc(OCCOCCOC(=O)NCCCCNC(=O)OCCOCCOc2ccc(CCCCNC(=N)NC(=O)c3nc(Cl)c(N)nc3N)cc2)cc1)NC(=O)c1nc(Cl)c(N)nc1N [Compound 28]
- lower AUC (total area under the curve) versus GS-9411 [1]: 5 fold
- lower Cmax (maximal concentration) versus GS-9411 [1]: 20 ×
- TPD (mV) (guinea-pigs; [5]): −4.00 mV
- TPD Assessment Time after i.t. Treatment 1 hr (guinea-pigs; 30 μg/kg): −6.7 ± 0.65 (3)
- TPD Assessment Time after i.t. Treatment 3 hr (guinea-pigs; 30 μg/kg): −6.4 ± 0.60 (3)
- TPD Assessment Time after i.t. Treatment 5 hr (guinea-pigs; 30 μg/kg): −5.4 ± 1.03 (3)
- TPD Assessment Time after i.t. Treatment 8 hr (guinea-pigs; 30 μg/kg): −5.1 ± 0.54 (3)
- TPD Assessment Time after i.t. Treatment 24 hr (guinea-pigs; 30 μg/kg): −5.9 ± 0.18 (3)
- TPD Assessment Time after i.t. Treatment 48 hr (guinea-pigs; 30 μg/kg): −9.6 ± 1.43 (3)

Compound: N=C(NCCCCc1ccc(OCCOCCOCCNC(=O)C(=O)NCCOCCOCCOc2ccc(CCCCNC(=N)NC(=O)c3nc(Cl)c(N)nc3N)cc2)cc1)NC(=O)c1nc(Cl)c(N)nc1N [Compound 69]
- TPD (mV) (guinea-pigs; [4]): −6.3 mV

Compound: N=C(N)Nc1ccc(C(=O)Oc2ccc3cc(C(=N)NCCOCCOCCNC(=N)c4ccc5cc(OC(=O)c6ccc(NC(=N)N)cc6)ccc5c4)ccc3c2)cc1 [Compound 50]
- TPD (mV) (guinea-pigs; [5]): −6.20 mV

Compound: N=C(NCCCCc1ccc(OCCOCCNC(=O)C(O)C(O)C(=O)NCCOCCOc2ccc(CCCCNC(=N)NC(=O)c3nc(Cl)c(N)nc3N)cc2)cc1)NC(=O)c1nc(Cl)c(N)nc1N (stereo not drawn) [Compound 16]
- TPD (mV) (guinea-pigs; [4]): −6.30 mV

Compound: N=C(N)Nc1ccc(C(=O)Oc2ccc(CC(=O)OCC(=O)NCCOCCOCCNC(=O)COC(=O)Cc3ccc(OC(=O)c4ccc(NC(=N)N)cc4)cc3)cc2)cc1 [Compound 53]
- TPD (mV) (guinea-pigs; [4]): −9.3 mV

Compound: NC(=NCc1ccccc1)NC(=O)c1nc(Cl)c(N)nc1N [Benzamil]
- TPD (mV) (guinea-pigs; [2]): −6.2 mV
- TPD Assessment Time after i.t. Treatment 1 hr (guinea-pigs; 300 μg/kg): −8.9 (1)
- TPD Assessment Time after i.t. Treatment 3 hr (guinea-pigs; 300 μg/kg): −7.2 (1)
- TPD Assessment Time after i.t. Treatment 5 hr (guinea-pigs; 300 μg/kg): −8.5 (1)
- TPD Assessment Time after i.t. Treatment 8 hr (guinea-pigs; 300 μg/kg): −6.5 (1)
- TPD Assessment Time after i.t. Treatment 24 hr (guinea-pigs; 300 μg/kg): −4.8 (1)
- TPD Assessment Time after i.t. Treatment 48 hr (guinea-pigs; 300 μg/kg): −10.0 ± 0.07 (2)

Compound: N=C(NCCCCc1ccc(OCCOCCNC(=O)CCC(=O)NCCOCCOc2ccc(CCCCNC(=N)NC(=O)c3nc(Cl)c(N)nc3N)cc2)cc1)NC(=O)c1nc(Cl)c(N)nc1N [Compound 67]
- TPD (mV) (guinea-pigs; [3]): −7.0 mV

Compound: COC(=O)C(CCCC(NC(=O)OCCOCCOc1ccc(CCCCNC(=N)NC(=O)c2nc(Cl)c(N)nc2N)cc1)C(=O)OC)NC(=O)OCCOCCOc1ccc(CCCCNC(=N)NC(=O)c2nc(Cl)c(N)nc2N)cc1 (stereo not drawn) [Compound 46]
- TPD (mV) (guinea-pigs; [4]): −7.30 mV
